Experimental data: ChEMBL document CHEMBL1138347, “Multi-target-directed drug design strategy: from a dual binding site acetylcholinesterase inhibitor to a trifunctional compound against Alzheimer's disease” (J Med Chem, 2007)

Assays:
Cholinesterase = Cholinesterase (Homo sapiens, UniProt P06276)
Description: Inhibition of human serum recombinant BChE by Ellman's method

[1] = Inhibition of human AChE-induced amyloid-beta (1-40) aggregation by thioflavin T fluorescene method
Acetylcholinesterase = Acetylcholinesterase (Homo sapiens, UniProt P22303)
Chain of Acetylcholinesterase (P22303 whole entry): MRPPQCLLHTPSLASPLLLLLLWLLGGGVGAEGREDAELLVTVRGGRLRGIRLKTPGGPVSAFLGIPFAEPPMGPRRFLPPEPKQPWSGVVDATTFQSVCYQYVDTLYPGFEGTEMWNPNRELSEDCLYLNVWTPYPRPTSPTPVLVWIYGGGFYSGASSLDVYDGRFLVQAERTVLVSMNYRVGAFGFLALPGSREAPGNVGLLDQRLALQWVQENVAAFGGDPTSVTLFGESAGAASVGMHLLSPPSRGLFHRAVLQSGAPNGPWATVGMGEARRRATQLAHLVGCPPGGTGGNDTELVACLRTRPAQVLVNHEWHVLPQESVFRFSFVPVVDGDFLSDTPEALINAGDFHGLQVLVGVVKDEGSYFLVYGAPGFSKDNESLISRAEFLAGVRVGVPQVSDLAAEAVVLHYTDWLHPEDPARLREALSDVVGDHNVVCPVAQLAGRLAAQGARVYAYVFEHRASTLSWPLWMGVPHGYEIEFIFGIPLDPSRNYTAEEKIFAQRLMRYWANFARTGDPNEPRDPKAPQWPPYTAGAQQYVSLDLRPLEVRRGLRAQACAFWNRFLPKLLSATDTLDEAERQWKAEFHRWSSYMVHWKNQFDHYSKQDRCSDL
Description: Inhibition of human serum recombinant AChE by Ellman's method

Chain of Cholinesterase (P06276 whole entry): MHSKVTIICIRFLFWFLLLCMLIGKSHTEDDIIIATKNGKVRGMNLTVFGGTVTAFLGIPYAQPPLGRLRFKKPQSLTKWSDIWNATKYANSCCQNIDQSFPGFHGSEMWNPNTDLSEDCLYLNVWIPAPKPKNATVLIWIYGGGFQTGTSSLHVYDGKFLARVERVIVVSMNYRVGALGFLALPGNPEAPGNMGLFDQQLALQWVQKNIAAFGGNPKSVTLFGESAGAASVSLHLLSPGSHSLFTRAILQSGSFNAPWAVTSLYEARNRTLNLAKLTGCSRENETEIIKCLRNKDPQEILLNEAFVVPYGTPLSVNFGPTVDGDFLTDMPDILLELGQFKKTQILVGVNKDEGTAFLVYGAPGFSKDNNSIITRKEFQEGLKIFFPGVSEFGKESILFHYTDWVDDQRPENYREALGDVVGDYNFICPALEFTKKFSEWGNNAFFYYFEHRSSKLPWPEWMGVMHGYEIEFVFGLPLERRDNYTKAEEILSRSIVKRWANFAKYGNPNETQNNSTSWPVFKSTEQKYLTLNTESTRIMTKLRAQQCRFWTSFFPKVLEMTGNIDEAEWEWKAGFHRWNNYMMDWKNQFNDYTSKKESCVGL

| SMILES | IC50 (Cholinesterase) [nM] | IC50 [1] [nM] | IC50 (Acetylcholinesterase) [nM] |
| --- | --- | --- | --- |
| c1ccc2c(NCCCCCCCNc3c4c(nc5ccccc35)CCCC4)c3c(nc2c1)CCCC3 | 5.66 | 41700 | – |
| c1ccc2c(NCCOCCOCCNc3c4c(nc5ccccc35)CCCC4)c3c(nc2c1)CCCC3 | 35.1 | – | 19.7 |
| O=C(NCCNc1c2c(nc3ccccc13)CCCC2)C(=O)NCCNc1c2c(nc3ccccc13)CCCC2 | 5.44 | – | 6.65 |
| O=C(CCCNc1c2c(nc3ccccc13)CCCC2)CCCNc1c2c(nc3ccccc13)CCCC2 | 11.3 | – | – |
